Data set [1] is described as follows: Hard surface cleaning formulation freeze-thaw testing. Format: physicochemical. Conditions: for Freeze-thaw visual observation: Example 5 formulation containing the solvent, 0° C. freezer >12 hours, thaw to room temperature. Here is the method:
Formulations as in Example 5 were prepared by combining ingredients and mixing until homogeneous. Freeze-thaw testing was performed over 3 cycles. Each cycle was putting the formulations into a 0° C. freezer for greater than 12 hours, then taking them out and allowing the samples to thaw to room temperature and then making the visual observation.

Data set [2] in a line: Coupling of water and octanoic acid by hydrotropes (amount producing a single phase). Format: physicochemical. As for the experimental part:
Hydrotropes were added to a two-component mixture of octanoic acid and deionized (DI) water to find the amount that produced a single phase from the two separate phases of water and octanoic acid.
The percent hydrotrope required to compatibilize phases (and the resulting percent octanoic acid) were calculated and the results are shown in Table 4 as well as FIG. 1.

Data set [3] is described as follows: Hard surface cleaning formulation heat cloud point testing. It counts as physicochemical. Particulars: Example 5 formulation containing the solvent; for Cloud point: heated while mixing. Here is the method: Formulations as in Example 5 were prepared by combining ingredients and mixing until homogeneous.
Data set [4] in a line: Coupling of water and castor oil by hydrotropes. Format: physicochemical.
Data set [5] is described as follows: Coupling of water and soy methyl ester by hydrotropes. It counts as physicochemical. As for the experimental part:
Hydrotropes were added to a two-component mixture of soy methyl ester and DI water to find the amount that produced a single phase from the two separate phases of water and soy methyl ester. The percent hydrotrope required to compatibilize the phases was calculated.

The nature of data set [6]: Hair dye active solubility testing. Here is the method: Two component mixtures using ketal alcohol (1a) and the actives shown in Table 13 were prepared by mixing the components at various proportions in a vial at room temperature and then heating in a lab oven at 80° C. for 10 minutes and then shaking.
Comparative formulations using EtLGK and ketal alcohol (1a) are shown below in Tables 14 and 15.

Data set [7] can be described thus: Hard surface cleaning formulation pH testing over 7 days. It counts as physicochemical. Particulars: 5 g solvent per 100 g. As for the experimental part: Formulations were prepared by combining ingredients and mixing until homogeneous. Next, pH measurements were taken over 7 days.
Where [8] appears, read: ratio of water:octanoic acid 10:90.
[9] abbreviates: ratio of water:octanoic acid 30:70.
The mark [10] stands for this setting: ratio of water:octanoic acid 50:50.
[11] abbreviates: ratio of water:octanoic acid 70:30.
[12] abbreviates: ratio of water:octanoic acid 90:10.
Setting [13] is: water:octanoic acid 10:90 (DI water 0.5 g, octanoic acid 4.5 g).
The mark [14] stands for this setting: water:octanoic acid 30:70 (DI water 1.5 g, octanoic acid 3.5 g).
[15] abbreviates: water:octanoic acid 50:50 (DI water 5.0 g, octanoic acid 5.0 g).
Where [16] appears, read: water:octanoic acid 70:30 (DI water 3.5 g, octanoic acid 1.5 g).
[17] abbreviates: water:octanoic acid 90:10 (DI water 4.5 g, octanoic acid 0.5 g).
Setting [18] is: ratio of water to castor oil 10:90.
Where [19] appears, read: ratio of water to castor oil 30:70.
The mark [20] stands for this setting: ratio of water to castor oil 50:50.
Where [21] appears, read: ratio of water to castor oil 70:30.
Where [22] appears, read: ratio of water to castor oil 90:10.
The mark [23] stands for this setting: ratio of water:soy methyl esters 10:90.
Where [24] appears, read: ratio of water:soy methyl esters 30:70.
Where [25] appears, read: ratio of water:soy methyl esters 50:50.
The mark [26] stands for this setting: ratio of water:soy methyl esters 70:30.
Setting [27] is: ratio of water:soy methyl esters 90:10.
Where [28] appears, read: all ratios 10:90 to 90:10, measured levels up to >95%.

Results on 5 compounds are retold here after patent US9458414B2, “Cleaning, surfactant, and personal care compositions” (SEGETIS, INC., priority 2012, dated 2016).

Take `CCCCOCCO` [2-butoxyethanol]: the Freeze-thaw visual observation result is “separation;” in data set [1] (Cycle 1), “separation;” in data set [1] (Cycle 2) and “two phases;” in data set [1] (Cycle 3). Further, the “Wt % Hydrotrope required to compatibilize phases” value is 33% in data set [2] (setting [8]); 52% in data set [2] (setting [9]); 57% in data set [2] (setting [10]); 61% in data set [2] (setting [11]); 52% in data set [2] (setting [12]). For the same compound, the “Wt % Octanoic Acid (resulting, at compatibilization)” value (“Wt % Octanoic Acid” for short) in data set [2] (setting [8]) is on record as 60%; in data set [2] (setting [9]), 34%; in data set [2] (setting [10]), 21%; in data set [2] (setting [11]), 12%; in data set [2] (setting [12]), 5%. Besides, the “Amount of hydrotrope that produced a single phase” value (shortened to “Amount”) in data set [2] (setting [13]) is reported as 2.47 grams; in data set [2] (setting [14]) it was 5.39 grams; in data set [2] (setting [15]), 6.74 grams; in data set [2] (setting [16]), 7.9 grams; in data set [2] (setting [17]) it was 5.43 grams. Also, the Cloud point in data set [3] and in data set [3] (listed as Butyl Cellosolve) was 44 °C each time.
In the case of `CC1COC(C)(CCCO)O1` (stereo not drawn) [Ketal alcohol (1a)], the “Wt % Castor oil (at compatibilization)” value came out at 32% in data set [4] (setting [18]); 21% in data set [4] (setting [19]); 11% in data set [4] (setting [20]); 5% in data set [4] (setting [21]); 2% in data set [4] (setting [22]). Besides, the “Wt % Hydrotrope required to compatibilize phases” value in data set [4] (setting [18]) is 64%; in data set [4] (setting [19]), 71%; in data set [4] (setting [20]), 79%; in data set [4] (setting [21]), 82%; in data set [4] (setting [22]), 84%; in data set [2] (setting [8]), 31%. For the same compound, the “Wt % Hydrotrope required to compatibilize phases” value in data set [2] (setting [9]) is 53%; in data set [2] (setting [10]), 54%; in data set [2] (setting [11]), 55%; in data set [2] (setting [12]) it was 46%. The Freeze-thaw visual observation entry is listed as “stable;” in data set [1] (Cycle 1), “gradient;” in data set [1] (Cycle 2) and “gradient;” in data set [1] (Cycle 3). Further, the Freeze-thaw performance overall entry in data set [1] (formulation containing the solvent, 3 cycles) is listed as “performed similarly to or better than the 2-butoxyethanol”. Moreover, the “Wt % Octanoic Acid” value in data set [2] (setting [8]) stood at 62%; in data set [2] (setting [9]), 33%; in data set [2] (setting [10]) it was 23%; in data set [2] (setting [11]) it was 14%; in data set [2] (setting [12]), 5%. Also, the “Amount” value was 2.27 grams in data set [2] (setting [13]); 5.63 grams in data set [2] (setting [14]); 11.81 grams in data set [2] (setting [15]); 6.07 grams in data set [2] (setting [16]); 4.33 grams in data set [2] (setting [17]). Also, the “Wt % Hydrotrope required to compatibilize the phases” value in data set [5] (setting [23]) is given as 58%; in data set [5] (setting [24]) it was 73%; in data set [5] (setting [25]) it was 81%; in data set [5] (setting [26]), 83%; in data set [5] (setting [27]), 81%. Besides, the “Wt % Soy Methyl Esters (at compatibilization)” value in data set [5] (setting [23]) is 38%; in data set [5] (setting [24]), 19%; in data set [5] (setting [25]), 10%; in data set [5] (setting [26]), 5%; in data set [5] (setting [27]) it was 2%. In addition, the Cloudiness on heating result in data set [3] is reported as “showed no signs of cloudiness”. Further, in data set [3], the Cloud point was more than 100 °C.
Turning to `Nc1ccc(N)cc1` [p-phenylene diamine], the “Ketal Alcohol (1a) Solubility” value is recorded as “insoluble” in data set [6] (Table 15, weight percentage active 1%); “soluble” in data set [6] (weight percentage active 1%, 80° C. 10 minutes, shaking, room temperature 24 hours); “soluble” in data set [6] (weight percentage active 5%, 80° C. 10 minutes, shaking, room temperature 24 hours); “insoluble” in data set [6] (weight percentage active 10%, 80° C. 10 minutes, shaking, room temperature 24 hours). Besides, the “EtLGK Solubility” value in data set [6] (weight percentage active 5% in EtLGK) was “soluble”.
In the case of `CCOC(=O)CCC1(C)OCC(CO)O1` (stereo not drawn) [Ketal alcohol (1a)], the “pH stability of the formulation containing the solvent” value in data set [7] is “maintained the same pH as the formulation containing 2-butoxyethanol and the control formulation”.
For the compound “Sodium xylene-sulfonate [Sodium xylene-sulfonate (SXS) (40%)]”, in data set [4] (setting [28]), the “Compatibilization of water and castor oil” value is on record as “*The sodium xylenesulfonate did not compatibilize at any measured level (up to >95%)”. The “Wt % Hydrotrope required to compatibilize phases” value in data set [2] (setting [8]) is 13%; in data set [2] (setting [9]), 16%; in data set [2] (setting [10]) it was 17%; in data set [2] (setting [11]), 17%; in data set [2] (setting [12]) it was 16%. The “Wt % Octanoic Acid” value in data set [2] (setting [8]) came to 61%; in data set [2] (setting [9]) it was 43%; in data set [2] (setting [10]) it was 29%; in data set [2] (setting [11]), 18%; in data set [2] (setting [12]), 6%. Besides, the “Amount” value worked out at 2.32 grams in data set [2] (setting [13]); 3.23 grams in data set [2] (setting [14]); 7.4 grams in data set [2] (setting [15]); 3.55 grams in data set [2] (setting [16]); 3.33 grams in data set [2] (setting [17]). Moreover, the “Compatibilization of water and soy methyl esters” value in data set [5] (setting [28]) is reported as “*The sodium xylenesulfonate did not compatibilize at any measured level (up to >95%)”.
